Experimental data taken from ChEMBL document CHEMBL1201862, “PubChem BioAssay data set” (2004).
Values joined by “and” are separate entries in the source; they are usually repeats but may differ in a detail not shown here. Identical values can stand only once. Counter-ions that a name gives are not always drawn. Active and inactive are the calls of the source.

What was measured:
[1] = viability of HCT116 lacking mutant beta-catenin – cell-based, human colon tumor, dose response (AID 1045); type: functional;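 also: HCT116 colon tumor cells with beta catenin knocked out; cells exposed to compound for 60 hours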
[2] = viability of PTEN-deleted HCT116 cells – cell-based, HCT116 PTEN knockout, dose response (AID 1047); type: functional;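 also: HCT116 colon tumor cells with PTEN knocked out; cells exposed to compound for 60 hours before readout; potency for loss of cell viability measured by luminescence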
[3] = Luminescence Cell-Based Dose Retest to Confirm Inhibitors of Cancer Stem Cells. [Related pubchem assays (depositor defined):AID2717, AID2721]; type: functional; conditions: Homo sapiens
[4] = microbe, parasite or virus in culture; type: functional; conditions: Mycobacterium tuberculosis
[5] = target: Cytochrome P450 3A4 (Homo sapiens, UniProt P08684); conditions: Potency;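 also: confirmatory qHTS run detecting inhibitors and substrates of CYP3A4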
[6] = target: T1, Corticotropin-releasing factor receptor 2/Corticotropin-releasing factor-binding protein (Homo sapiens, UniProt P24387+Q13324); assay: Dose Response confirmation of uHTS hits for small molecule antagonists of the CRF-binding protein and CRF-R2 receptor complex.; type: functional; conditions: read-out: IC50_Mean
T1 sequence (Q13324 whole entry): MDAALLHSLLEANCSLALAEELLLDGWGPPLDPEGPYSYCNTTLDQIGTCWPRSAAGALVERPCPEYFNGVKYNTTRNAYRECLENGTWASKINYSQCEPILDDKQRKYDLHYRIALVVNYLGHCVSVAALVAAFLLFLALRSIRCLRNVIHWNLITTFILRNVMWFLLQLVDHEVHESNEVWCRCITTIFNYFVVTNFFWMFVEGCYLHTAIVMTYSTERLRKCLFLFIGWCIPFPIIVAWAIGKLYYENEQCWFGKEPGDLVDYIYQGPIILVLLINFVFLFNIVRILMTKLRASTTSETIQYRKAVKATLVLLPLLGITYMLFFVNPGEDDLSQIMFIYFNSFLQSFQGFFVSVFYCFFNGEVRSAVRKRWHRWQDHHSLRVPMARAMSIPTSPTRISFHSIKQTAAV
T1 sequence (P24387 whole entry): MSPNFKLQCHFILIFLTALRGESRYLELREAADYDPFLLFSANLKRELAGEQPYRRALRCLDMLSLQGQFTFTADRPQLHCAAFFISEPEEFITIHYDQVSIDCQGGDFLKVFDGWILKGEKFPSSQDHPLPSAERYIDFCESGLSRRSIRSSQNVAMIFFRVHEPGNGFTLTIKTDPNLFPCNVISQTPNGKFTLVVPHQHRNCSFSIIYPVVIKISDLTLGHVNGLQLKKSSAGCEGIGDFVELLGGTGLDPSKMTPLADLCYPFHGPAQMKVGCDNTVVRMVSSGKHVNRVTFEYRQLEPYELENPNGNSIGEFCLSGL

[7] = target: T1, Corticotropin-releasing factor receptor 2/Corticotropin-releasing factor-binding protein; assay: activators of CRF receptor 2 with binding protein – uHTS hits, confirmation (AID 602473); type: functional; conditions: read-out: EC50_Mean
[8] = cells; type: functional
[9] = HIV-1 AD8 envelope cell-cell fusion blockers – cherry-pick, dose response (AID 652062); type: functional, cell-based;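 also: luciferase signal from cell-cell fusion driven by HIV-1 clade B AD8 Env; potency is for inhibitors of fusion seen as a drop in luminescence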
[10] = blockers of HIV-1 envelope-mediated cell-cell fusion – cherry-pick, dose response (AID 652057); type: functional, cell-based
[11] = test system: INS1; assay: INS-1E survival protection against cytokine death – cell-based, luminescence, retest, dose response (AID 449756); type: functional; conditions: Rattus norvegicus;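 also: cell death triggered by IL-1 beta plus TNF-alpha plus IFN-gamma mixture; protective hits raise ATP signal compared with cytokine alone wells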
[12] = test system: Streptococcus sp. 'group A'; assay: Streptococcus pyogenes SK(-)GAS viability under kanamycin – luminescence, BacTiterGlo, confirmation, counter-screen for streptokinase expression inhibitor project, dose response (AID 1900); type: functional, organism-based
[13] = test system: Streptococcus; assay: GAS UMAA2166 growth inhibition – luminescence, BacTiterGlo, counter-screen for streptokinase expression inhibitor project, dose response (AID 1915); type: functional, organism-based;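 also: potency for reduction of bacterial viability or growth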
[14] = target: T2, Streptokinase A (Streptococcus pyogenes serotype M1, UniProt P10520); assay: viability-normalized secreted streptokinase activity reduction – plasminogen activation absorbance, OD405, dose response (AID 1914); type: functional, Streptococcus pyogenes M1 GAS;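 also: secreted streptokinase activity via plasminogen activation per viability signal from cell pellet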
T2 sequence (P10520 whole entry): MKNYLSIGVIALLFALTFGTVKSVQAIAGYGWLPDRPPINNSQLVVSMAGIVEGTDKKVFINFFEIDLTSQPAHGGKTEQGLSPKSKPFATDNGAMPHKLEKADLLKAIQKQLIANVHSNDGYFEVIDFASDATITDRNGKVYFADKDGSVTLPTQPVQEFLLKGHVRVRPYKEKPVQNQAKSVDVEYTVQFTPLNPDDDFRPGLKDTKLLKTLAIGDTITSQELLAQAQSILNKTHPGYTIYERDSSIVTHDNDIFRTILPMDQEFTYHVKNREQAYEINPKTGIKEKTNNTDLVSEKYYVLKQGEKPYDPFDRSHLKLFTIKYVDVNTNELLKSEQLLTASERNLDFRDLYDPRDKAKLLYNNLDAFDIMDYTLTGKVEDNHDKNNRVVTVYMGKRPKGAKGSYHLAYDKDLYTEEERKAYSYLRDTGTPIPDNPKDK

[15] = target: Paired box protein Pax-8 (Homo sapiens, UniProt Q06710); assay: PAX8 transcriptional activity inhibition in RMG-I – RMG-I cells, luciferase, cherry-pick, dose response (AID 687027); type: functional, cell-based;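 also: luciferase reporter driven by Pax8 target thyroperoxidase promoter measured by SteadyGlo luminescence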
[16] = reduction of Shn3 3'UTR-driven luciferase in osteoblasts – cell-based, Clone20 osteoblasts, firefly luciferase, cherry-picked, dose response (AID 624132); type: functional;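 also: firefly luciferase luminescence from reporter carrying the Shn3 3'UTR in osteoblasts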
[17] = non-specific 3'UTR reporter inhibition in Clone20-Shn3RL – cell-based, Renilla luciferase, cherry-picked, counter-screen for Shn3 inhibitor project, dose response (AID 624133); type: functional
[18] = loss of viability in HepG2 cells – cell-based, CellTiter-Glo, cherry-picked, cytotoxicity control for Shn3 inhibitor project, dose response (AID 624134); type: functional
[19] = Trypanosoma cruzi growth suppression in host cells – NIH3T3 host cells, beta-gal luminescence, confirmation (AID 2044); type: functional, cell-based;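 also: intracellular parasites grown in NIH/3T3 mouse fibroblasts as host cells; luminescent beta-galactosidase reporter signal from transgenic T. cruzi replicating inside host cells; inhibitors lower the luminescence signal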
[20] = NIH3T3 cell viability loss – ATP luminescence, mouse fibroblasts, counter-screen, dose response (AID 2010); type: functional, cell-based;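 also: cells exposed to compound for about 90 hours before reading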

Sequence of Cytochrome P450 3A4 (P08684 whole entry): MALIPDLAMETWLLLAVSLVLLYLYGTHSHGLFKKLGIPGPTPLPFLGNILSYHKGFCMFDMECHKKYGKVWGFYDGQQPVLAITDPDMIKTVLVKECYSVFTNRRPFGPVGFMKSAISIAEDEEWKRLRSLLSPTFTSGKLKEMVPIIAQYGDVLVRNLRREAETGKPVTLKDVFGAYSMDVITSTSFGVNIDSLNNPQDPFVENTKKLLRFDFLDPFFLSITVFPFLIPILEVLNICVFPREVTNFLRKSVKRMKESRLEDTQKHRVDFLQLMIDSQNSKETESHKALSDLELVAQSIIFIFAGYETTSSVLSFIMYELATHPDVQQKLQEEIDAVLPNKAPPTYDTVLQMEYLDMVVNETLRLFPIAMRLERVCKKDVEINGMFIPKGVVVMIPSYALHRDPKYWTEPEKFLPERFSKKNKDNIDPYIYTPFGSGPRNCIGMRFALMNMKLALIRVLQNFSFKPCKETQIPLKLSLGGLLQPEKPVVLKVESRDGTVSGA
Sequence of Paired box protein Pax-8 (Q06710 whole entry): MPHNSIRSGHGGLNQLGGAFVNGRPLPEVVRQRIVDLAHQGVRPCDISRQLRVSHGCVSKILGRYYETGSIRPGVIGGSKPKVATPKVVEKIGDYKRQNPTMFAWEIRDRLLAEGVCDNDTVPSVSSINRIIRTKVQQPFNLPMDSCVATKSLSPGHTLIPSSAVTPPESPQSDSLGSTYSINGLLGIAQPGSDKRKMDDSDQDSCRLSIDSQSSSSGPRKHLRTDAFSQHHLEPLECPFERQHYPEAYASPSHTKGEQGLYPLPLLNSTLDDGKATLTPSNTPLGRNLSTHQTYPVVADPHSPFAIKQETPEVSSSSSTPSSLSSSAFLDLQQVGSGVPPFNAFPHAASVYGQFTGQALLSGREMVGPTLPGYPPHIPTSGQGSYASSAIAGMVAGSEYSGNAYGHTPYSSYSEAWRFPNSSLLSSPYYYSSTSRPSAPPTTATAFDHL

CCOC(=O)c1cc2c(N)c(C(=O)c3cc(C#N)c(SC)nc3C)sc2nc1C
EC50 [1]: 8.35 µM (active)
EC50 [2]: 8.22 µM (active)

Cc1nn(Cc2ccccc2)c(C)c1C(=O)OCC(=O)c1cc(C)n(CC(F)(F)F)c1C
AC50 [3]: 4.47 µM (active)
CC50 [4]: > 40 µM (active)

CCCn1c(-c2ccc(F)cc2)nc2c(N3CCC(N(C)C)C3)nc(C)nc21 (stereo unspecified)
AC50 [5]: 15.8 µM (inconclusive)

O=C(CCC(=O)OCC(F)(F)C(F)F)NCc1ccccc1
IC50 [6]: > 47.1 µM (inactive)
EC50 [7]: > 53 µM (inactive)

CC1=C(C(=O)OC(C)C)C(c2cccs2)N2C(=O)C(C)SC2=N1 (stereo unspecified)
IC50 [6]: > 47.1 µM (inactive)
EC50 [7]: > 53 µM (inactive)

CN=C(S)N=Nc1c(O)[nH]c2ccc(C(C)C)cc12
EC50 [1]: 17.6 µM (active)
EC50 [2]: 22.4 µM (active)

Cc1nn(Cc2ccccc2)c(C)c1NC(=O)c1cc2nc(-c3ccco3)cc(C(F)(F)F)n2n1
CC50 [4]: > 40 µM (active)

CCC(=O)Nc1cccc(C(=O)/C=C/c2cc(Br)ccc2OC)c1
EC50 [1]: 0.933 µM (active)
EC50 [2]: 1.3 µM (active)

O=C(CCSc1nnc(-c2ccccc2)o1)N1CCOCC1
IC50 [8]: 20.7 µM (active)

Nc1c(C(=O)Nc2cccc(Cl)c2Cl)sc2nc(-c3cccnc3)ccc12
EC50 [1]: 11 µM (active)
EC50 [2]: 5.65 µM (active)

CC(C)n1c(NCCc2ccccc2)nc2c1c(=O)n(C)c(=O)n2C
AC50 [9]: 17.9 µM (active)
AC50 [10]: 21.2 µM (active)

CC(C)(C)Sc1ccc2nc3c(n2c1)CCCC3
IC50 [8]: 29 µM (active)
AC50 [11]: 14.7 µM (active)

c1ccc(Nc2nc(N3CCCCC3)nc(N3CCNCC3)n2)cc1
CC50 [4]: 23.5 µM (active)
EC50 [1]: 14.3 µM (active)
EC50 [2]: 12.7 µM (active)

COc1ccc(N(CC(=O)Nc2cc(Cl)ccc2C)S(=O)(=O)c2c(C)n[nH]c2C)cc1
CC50 [4]: > 40 µM (active)

C/C(Cl)=C\COc1cc(C)nc2c(Br)cccc12
CC50 [4]: > 40 µM (active)

O=c1c(O)c(-c2cccs2)oc2ccccc12
EC50 [12]: 3.69 µM (active)
CC50 [4]: > 40 µM (active)
EC50 [13]: > 150 µM (not active)
EC50 [14]: > 150 µM (not active)

O=C(NC1CC2CCC1C2)C1COc2ccccc2O1 (stereo unspecified)
IC50 [8]: > 50 µM (active)

Cc1cc(NC2CCCCC2)nc(-c2ccccc2O)n1
CC50 [4]: > 40 µM (active)

O=C(NNc1c(F)c(F)cc(F)c1F)c1cc2ccccc2oc1=O
IC50 [8]: 48 µM (active)

Cc1ccc(NC(=O)Cn2cc(S(=O)(=O)c3ccc(C)cc3)c(=O)c3cc(F)ccc32)cc1
EC50 [1]: 9.08 µM (active)
EC50 [2]: 10.9 µM (active)

COc1ccccc1/C=C/C1=CC2(C)CC1(C)C(c1ccccc1OC)CC2=O (stereo unspecified)
AC50 [5]: 3.16 µM (inconclusive)

CCOc1ccc(NC(=O)Nc2cc(OCC(F)(F)F)cc(OCC(F)(F)F)c2)cc1
EC50 [1]: 19.1 µM (active)
EC50 [2]: 16.9 µM (active)
AC50 [15]: 8.08 µM (active)

Cc1ccc(C)c(-c2nnc(NC(=O)COc3ccccc3)o2)c1
EC50 [12]: 1.18 µM (active)
IC50 [8]: 5.98 µM (active)
EC50 [13]: 23.1 µM (active)
EC50 [14]: > 150 µM (not active)

Cc1nc(NC2CCCCC2)c2nc(-c3ccccc3)n(CCN(C)C)c2n1
AC50 [5]: 25.1 µM (inconclusive)

COc1ccc(COC(=O)CCNC(=O)c2ccc(Cl)cc2)cc1
IC50 [8]: > 50 µM (active)

CN(C)c1ccc(C(=N)c2ccc(N(C)C)cc2)cc1
AC50 [5]: 15.8 µM (inconclusive)

COC(=O)C(CC(=O)c1cccc(OC)c1)c1ccc(F)cc1 (stereo unspecified)
IC50 [6]: > 47.1 µM (inactive)
EC50 [7]: > 53 µM (inactive)

COc1ccc(CC(N)c2csc(NC(=O)NC(c3ccccc3)c3ccccc3)n2)cc1 (stereo unspecified)
AC50 [16]: 6.4 µM (active)
AC50 [17]: 19.3 µM (active)
AC50 [18]: 21.1 µM (active)

CC(C)c1ccc(NC(=O)Nc2nc(C(N)COCc3ccccc3)cs2)cc1 (stereo unspecified)
AC50 [16]: 5.99 µM (active)
AC50 [17]: 10.8 µM (active)
AC50 [18]: 18.1 µM (active)

Cc1cccc(NC(=O)CSc2nc3ccccc3c(=O)n2C)c1C
AC50 [16]: 2.98 µM (active)
AC50 [17]: 15.2 µM (active)
AC50 [18]: 39 µM (active)

O=C1N=C(N/N=C/c2ccccn2)SC1Cc1cccc(SC(F)F)c1 (stereo unspecified)
CC50 [4]: 14.7 µM (active)
EC50 [19]: 0.528 µM (active)
EC50 [20]: 4.95 µM (active)

C[C@@H]1CN([C@H](C)CO)C(=O)Cc2cc(NC(=O)Cc3ccccc3)ccc2O[C@@H]1CN(C)Cc1ccc(C(F)(F)F)cc1
AC50 [15]: 11.8 µM (active)

COc1ccc(NC(=O)Nc2ccc3c(c2)C(=O)N([C@H](C)CO)C[C@H](C)[C@H](CN(C)S(=O)(=O)c2ccc(OC)cc2)O3)cc1
AC50 [9]: 4.67 µM (active)
AC50 [10]: 2.08 µM (active)

C[C@@H]1CCCCO[C@@H](CN(C)Cc2ccc(C(F)(F)F)cc2)[C@H](C)CN([C@H](C)CO)C(=O)c2cc(NS(=O)(=O)c3cccs3)ccc2O1
AC50 [15]: 9.08 µM (active)

COC(=O)C1=C(C)N(Cc2ccccc2)[C@]23O[C@](C(=O)OC)(C(=O)N2C1c1ccccc1)C1C(=O)N(C)C(=O)C13 (stereo partly specified)
AC50 [5]: 2.51 µM (inconclusive) and 3.16 µM (inconclusive)

CC(=O)O[C@H]1C[C@H](O[C@H]2[C@@H](O)C[C@H](O[C@H]3[C@@H](O)C[C@H](O[C@H]4CC[C@@]5(C)[C@H](CC[C@@H]6[C@@H]5CC[C@]5(C)[C@@H](C7=CC(=O)OC7)CC[C@]65O)C4)O[C@@H]3C)O[C@@H]2C)O[C@H](C)[C@H]1O[C@@H]1O[C@H](CO)[C@@H](O)[C@H](O)[C@H]1O
AC50 [15]: 0.345 µM (active)

Cc1cc(O)cc(=O)o1
AC50 [5]: 39.8 µM (inconclusive)

CC(=O)Oc1cc(OC(C)=O)c2c(=O)cc(-c3ccc(OC(C)=O)c(OC(C)=O)c3)oc2c1
AC50 [5]: 0.794 µM (inconclusive)

CCCCC(CC)CN=C(N)N=C(N)NCCCCCCNC(N)=NC(N)=NCC(CC)CCCC (stereo unspecified) [ALEXIDINE HYDROCHLORIDE]
CC50 [4]: 10.5 µM (active)
AC50 [11]: 2.26 µM (active)

CC1(C)[C@@H](O)CC[C@]2(C)[C@H]3C(=O)C=C4[C@@H]5C[C@@](C)(C(=O)O)CC[C@]5(C)CC[C@@]4(C)[C@]3(C)CC[C@@H]12 [ENOXOLONE]
AC50 [5]: 15.8 µM (inconclusive)
